# Measured values as given in a melting point compilation (Tetko et al.).
row,Structure (SMILES),melting point
1,CC(C)(C)c1cnc(N)s1,79 to 81 °C
2,Cc1cccnc1NC1CCCCC1,81 to 83 °C
3,Cc1ccc(Oc2ccc(N)cc2Cl)c(Br)c1,110 to 112 °C
4,O=Cc1ccc(-c2c(F)cccc2F)o1,51 to 53 °C
5,CN(c1ccccc1C(=O)O)S(C)(=O)=O,146 to 148 °C
6,Cc1ccc(-n2nc(-c3ccccc3)cc2N)c(C)c1,126 to 128 °C
7,Nc1nc(-c2cccs2)c(-c2cccs2)s1,139 to 141 °C
8,O=C(O)c1cn(-c2ccc(C(F)(F)F)cn2)nn1,134 to 136 °C
9,NC(=O)NCC1CC1,117 to 119 °C
10,O=C(O)C1CC2CCCCC2N1C(=O)c1ccc(F)cc1F (stereo unspecified),189 to 191 °C
11,C#Cc1cccc(NC(=O)NC(=O)CCl)c1,185 to 187 °C
12,O=c1[nH]c(S)nc2cc(Cl)ccc12,306 to 308 °C
13,CC1=C(C(=O)O)CCC1,130 to 132 °C
14,Clc1nc(Cl)c2cn[nH]c2n1,127 to 129 °C
15,Cc1nc(NC(=O)CCl)sc1C,144 to 146 °C
16,COc1ccc(Br)cc1CN1C(=O)CNC1=O,183 to 185 °C
17,CC(C)NC(=O)Nc1ccccc1N,317 to 319 °C

row,Structure (SMILES),melting point
1,O=C1CC(=O)CC2(CCCCC2)C1,169 to 171 °C
2,Cc1ccccc1C1(C(=O)O)CCCCC1,162 to 164 °C
3,O=C(O)CC(O)c1cc(Cl)cc(Cl)c1 (stereo unspecified),198 to 200 °C
4,NC(CC(=O)NC1CCCC1)=NO,119 to 121 °C
5,Nc1cc([N+](=O)[O-])c(F)cc1F,98 to 100 °C
6,Cc1nc(Cl)nc(Cl)c1[N+](=O)[O-],52 to 54 °C
7,O=C(O)C1CCCn2ccnc21 (stereo unspecified),156 to 158 °C
8,Cc1cc(Cl)c(Cl)cc1[N+](=O)[O-],57 to 59 °C
9,Nc1nc(-c2c(F)cccc2F)co1,139 to 141 °C
10,Nc1ccc(Sc2ccc(C(F)(F)F)cc2)cc1,93 to 95 °C
11,NC1CCN(C(=O)C2CC2)CC1,53 to 55 °C
12,CC(Cl)C(=O)NC(=O)Nc1ccccc1F (stereo unspecified),135 to 137 °C
13,O=S(=O)(Nc1ccccc1Br)N1CCOCC1,81 to 83 °C
14,CC(C)CN1CCOC(CNC(=O)CCl)C1 (stereo unspecified),83 to 85 °C
15,Cc1ccc(S(=O)(=O)Cl)cc1S(=O)(=O)N1CCCCC1,111 to 113 °C
16,NNC(=O)c1ccc2c(c1)OCCO2,142 to 144 °C

# The remaining lines, values ahead:
row,melting point,Structure (SMILES)
1,127 to 129 °C,CCOc1ccc(C(=O)N(C)C)cc1N
2,184 to 186 °C,COc1ccc(C(=O)Nc2ccccc2C(=O)O)cc1
3,169 to 171 °C,COc1ccc(Oc2ccc(S(N)(=O)=O)cc2)cc1
4,234 to 236 °C,N#Cc1ccc(NC(N)=O)cc1
5,106 to 108 °C,O=C(O)c1cccnc1-n1cccn1
6,220 to 222 °C,CNc1ncccc1C(=O)O
7,44 to 46 °C,CCCNCC(=O)Nc1ccc(Cl)cc1
8,38 to 40 °C,COCCOc1ccc(C(C)=O)cc1
9,109 to 111 °C,COC(=O)COc1ccc2cc(Br)ccc2c1
10,114 to 116 °C,CC(C)(C)C(=O)COc1ccc([N+](=O)[O-])cc1Cl
11,230 to 232 °C,COc1ccc(C(=O)O)cc1S(=O)(=O)NCc1ccc(Cl)cc1
12,106 to 108 °C,CC(=O)c1ccc(OCc2nccn2C)cc1
13,126 to 128 °C,Nc1c(-c2ccccc2)ncn1N
14,299 to 301 °C,O=C(O)c1ccc(-c2nnc(-c3ccccc3)o2)cc1
15,82 to 84 °C,COC(=O)c1cc2ccccc2nc1Cl
16,39 to 41 °C,O=C(CC(F)(F)F)c1ccc(Cl)cc1
17,183 to 185 °C,N#Cc1cccc(S(=O)(=O)n2ccc(N)n2)c1
18,82 to 84 °C,CCc1ccc2c(CC(=O)O)coc2c1
19,141 to 143 °C,COCCOc1ccc(C(N)=S)cc1
20,116 to 118 °C,CC(C)Oc1ccc(NS(=O)(=O)CC(=O)O)cc1
21,158 to 160 °C,COC(=O)Cn1nc2ccc(Cl)nn2c1=O
22,114 to 116 °C,CCCn1c(N)nc2ccccc21
23,98 to 101 °C,COc1ccc(Cl)cc1NC(=O)CC(=O)Nc1cc(Cl)ccc1OC
